What was measured:
Assay type in all cases: in vivo
Kochia scoparia (KCHSC) [1] = test: Herbicidal pre-emergence action, 1280 g/ha (Table A4); conditions: visual grading after ca. 3 weeks vs untreated controls
Summary of the method: (§1)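 Seeds are sown and covered with sandy loam soil, then the soil surface is treated with compound suspension or emulsion (0.5% additive, 600 L water/ha). Plants grow in a greenhouse under optimum conditions, and damage is rated visually at ca. 3 weeks against untreated controls.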

Lolium rigidum (LOLRI) [2] = test: Herbicidal pre-emergence action, 1280 g/ha (Table A5); conditions: visual grading after ca. 3 weeks vs untreated controls
Summary of the method: as §1

[3] = system: Matricaria inodora (MATIN); test: Herbicidal pre-emergence action, 1280 g/ha (Table A6); conditions: visual grading after ca. 3 weeks vs untreated controls
Summary of the method: as §1

Poa annua (POAAN) = test: Herbicidal pre-emergence action, 1280 g/ha (Table A7); conditions: visual grading after ca. 3 weeks vs untreated controls
Summary of the method: as §1

Stellaria media (STEME) [4] = test: Herbicidal pre-emergence action, 1280 g/ha (Table A9); conditions: visual grading after ca. 3 weeks vs untreated controls
Summary of the method: as §1

[5] = system: Amaranthus retroflexus (AMARE); test: Herbicidal pre-emergence action, 1280 g/ha (Table A11); conditions: visual grading after ca. 3 weeks vs untreated controls
Summary of the method: as §1

[6] = system: Abutilon theophrasti (ABUTH); test: Herbicidal post-emergence action, 1280 g/ha (Table B1); conditions: visual assessment after ca. 3 weeks vs untreated controls
Summary of the method: (§2)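 Post-emergence greenhouse pot test: weeds in sandy loam sprayed at single-leaf stage, 2–3 weeks after sowing, with WP or EC formulations plus 0.5% additive at 600 L water/ha. Effect scored visually ca. 3 weeks later versus untreated controls, 0% = as control, 100% = plants dead.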

Kochia scoparia (KCHSC) [7] = test: Herbicidal post-emergence action, 1280 g/ha (Table B4); conditions: visual assessment after ca. 3 weeks vs untreated controls
Summary of the method: as §2

[8] = system: Matricaria inodora (MATIN); test: Herbicidal post-emergence action, 1280 g/ha (Table B6); conditions: visual assessment after ca. 3 weeks vs untreated controls
Summary of the method: as §2

Stellaria media (STEME) [9] = test: Herbicidal post-emergence action, 1280 g/ha (Table B9); conditions: visual assessment after ca. 3 weeks vs untreated controls
Summary of the method: as §2

Veronica persica (VERPE) [10] = test: Herbicidal post-emergence action, 1280 g/ha, VERPE; conditions: visual grading vs untreated controls
Summary of the method: (§3)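 Pot-grown weeds in sandy loam sprayed post-emergence at the single-leaf stage, 2–3 weeks after sowing, with WP or EC formulations plus 0.5% additive in 600 L water/ha at 1280 g/ha. After ca. 3 weeks in the greenhouse, damage scored visually as % effect versus untreated controls (100% = plants dead).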

[11] = system: Amaranthus retroflexus (AMARE); test: Herbicidal post-emergence action, 1280 g/ha, AMARE; conditions: visual grading vs untreated controls
Summary of the method: as §3

Lolium rigidum (LOLRI) [12] = test: Herbicidal pre-emergence action, 320 g/ha (Table C2); conditions: visual grading after ca. 3 weeks vs untreated controls
Summary of the method: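 Applied pre-emergence to the surface of soil covering weed seeds sown in sandy loam, as WP or EC formulations in water with 0.5% additive at 600 L/ha. Greenhouse-grown; damage graded visually at ca. 3 weeks as percent of untreated controls (100% = plants died).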

[13] = system: Matricaria inodora (MATIN); test: Herbicidal pre-emergence action, 320 g/ha (Table C3); conditions: visual grading after ca. 3 weeks vs untreated controls
Text: (§4) Seeds of mono- and dicotyledonous weed plants were sown in plastic pots (double sowings with one species of mono- and one species of dicotyledonous weed plants per pot), in sandy loam, and covered with soil. The compounds according to the invention, formulated in the form of wettable powders (WP) or as emulsifiable concentrates (EC), were applied to the surface of the covering soil as an aqueous suspension or as an emulsion, with the addition of 0.5% of an additive, at an application rate of 600 litres of water per hectare (converted). Following treatment, the pots were placed in a greenhouse and kept under optimum growth conditions for the test plants. The visual grading of the damage to the test plants was carried out after ca. 3 weeks in comparison to untreated controls (herbicidal effect in percent (%): 100% effect=plants have died, 0% effect=as control plants). Tables C1 to C6 below, show the effects of selected compounds of the general formula (I) according to Table 1 on various harmful plants using an application rate corresponding to 320 g/ha obtained by the experimental procedure mentioned above.

Stellaria media (STEME) [14] = test: Herbicidal pre-emergence action, 320 g/ha, STEME; conditions: visual grading after ca. 3 weeks
Summary of the method: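 Weed seeds sown in sandy loam pots; WP or EC formulations applied pre-emergence to the covering soil surface at 320 g/ha with 0.5% additive in 600 L water/ha. Greenhouse growth; visual damage scored after ca. 3 weeks versus untreated controls (100% = plants died, 0% = as control).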

[15] = system: Abutilon theophrasti (ABUTH); test: Herbicidal post-emergence action, 320 g/ha, ABUTH; conditions: visual grading after ca. 3 weeks
Summary of the method: (§5)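 Test compounds, formulated as wettable powders or emulsifiable concentrates with 0.5% additive, are sprayed onto green parts of single-leaf-stage weeds at a water volume of 600 L/ha. Percent effect is judged by eye after roughly three weeks under optimum greenhouse conditions.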

[16] = system: Matricaria inodora (MATIN); test: Herbicidal post-emergence action, 320 g/ha, MATIN; conditions: visual grading after ca. 3 weeks
Summary of the method: as §5

Veronica persica (VERPE) [17] = test: Herbicidal post-emergence action, 320 g/ha, VERPE; conditions: visual grading after ca. 3 weeks
Summary of the method: as §5

[18] = system: Amaranthus retroflexus (AMARE); test: Herbicidal post-emergence action, 320 g/ha, AMARE; conditions: visual grading after ca. 3 weeks
Summary of the method: as §5

[19] = system: Abutilon theophrasti (ABUTH); test: Herbicidal pre-emergence action, 1280 g/ha (Table A1); conditions: visual grading after ca. 3 weeks vs untreated controls
Summary of the method: as §1

Stellaria media (STEME) [20] = test: Herbicidal post-emergence action, 320 g/ha, STEME; conditions: visual grading after ca. 3 weeks
Summary of the method: as §5

[21] = system: Digitaria sanguinalis (DIGSA); test: Herbicidal post-emergence action, 1280 g/ha (Table B2); conditions: visual assessment after ca. 3 weeks vs untreated controls
Text: (§6) Seeds of mono- and dicotyledonous weed plants were sown in plastic pots (double sowings with one species of mono- and one species of dicotyledonous weed plants per pot), in sandy loam, covered with soil and grown under controlled growth conditions. 2 to 3 weeks after sowing, the test plants were sprayed in the single-leaf stage. The compounds according to the invention, formulated in the form of wettable powders (WP) or as emulsifiable concentrates (EC), were sprayed onto the green plant parts as an aqueous suspension or as an emulsion, with the addition of 0.5% of an additive, at an application rate of 600 litres of water per hectare (converted). The test plants were placed in the greenhouse for ca. 3 weeks under optimum growth conditions, and then the effect of the preparations was assessed visually in comparison with untreated controls (herbicidal effect in percent (%): 100% effect=plants have died, 0% effect=as control plants). Tables B1 to B11 below, show the effects of selected compounds of the general formula (I) according to Table 1 on various harmful plants using an application rate corresponding to 1280 g/ha obtained by the experimental procedure mentioned above.

[22] = system: Echinochloa crus-galli (ECHCG); test: Herbicidal post-emergence action, 1280 g/ha (Table B3); conditions: visual assessment after ca. 3 weeks vs untreated controls
Text: as §6

Lolium rigidum (LOLRI) [23] = test: Herbicidal post-emergence action, 1280 g/ha (Table B5); conditions: visual assessment after ca. 3 weeks vs untreated controls
Summary of the method: as §2

Setaria viridis (SETVI) [24] = test: Herbicidal post-emergence action, 1280 g/ha (Table B8); conditions: visual assessment after ca. 3 weeks vs untreated controls
Text: as §6

Setaria viridis (SETVI) [25] = test: Herbicidal pre-emergence action, 1280 g/ha (Table A8); conditions: visual grading after ca. 3 weeks vs untreated controls
Summary of the method: as §1

[26] = system: Amaranthus retroflexus (AMARE); test: Herbicidal pre-emergence action, 320 g/ha, AMARE; conditions: visual grading after ca. 3 weeks
Text: as §4, with “plants).” for “plants). Tables C1 to C6 below, show the effects of selected compounds of the general formula (I) according to Table 1 on various harmful plants using an application rate corresponding to 320 g/ha obtained by the experimental procedure mentioned above.”
Tables C1 to C6 below, show the effects of selected compounds of the general formula (I) according to Table 1 on various harmful plants using an application rate corresponding to 320 g/ha obtained by the experimental procedure mentioned above.

Row | Structure (SMILES) | herbicidal effect LOLRI (Lolium rigidum (LOLRI) [2]) [%] | herbicidal effect MATIN [3] [%] | herbicidal effect STEME (Stellaria media (STEME) [4]) [%] | herbicidal effect AMARE [5] [%] | herbicidal effect ABUTH [6] [%] | herbicidal effect KCHSC (Kochia scoparia (KCHSC) [7]) [%] | herbicidal effect STEME (Stellaria media (STEME) [9]) [%] | herbicidal effect VERPE (Veronica persica (VERPE) [10]) [%] | herbicidal effect AMARE [11] [%] | herbicidal effect MATIN [13] [%] | herbicidal effect STEME (Stellaria media (STEME) [14]) [%] | herbicidal effect ABUTH [15] [%] | herbicidal effect AMARE [18] [%] | herbicidal effect STEME (Stellaria media (STEME) [20]) [%] | herbicidal effect DIGSA [21] [%] | also measured
1 | Cc1nn(C)c(=O)c(Oc2cc(F)ccc2Br)c1O [Example I-026] | 100 | 100 | 100 | 100 | 100 | 90 | 90 | 90 | 100 | 90 | 100 | 90 | 90 |  |  | herbicidal effect KCHSC (Kochia scoparia (KCHSC) [1]): 90%; herbicidal effect POAAN (Poa annua (POAAN)): 90%; herbicidal effect MATIN [8]: 100%; herbicidal effect LOLRI (Lolium rigidum (LOLRI) [12]): 90%; herbicidal effect MATIN [16]: 90%; herbicidal effect VERPE (Veronica persica (VERPE) [17]): 90%
2 | Cc1nn(C)c(=O)c(Oc2cc(Cl)cc(Cl)c2)c1O [Example I-027] | 100 | 100 | 100 |  | 90 | 90 | 90 | 90 | 100 | 100 | 100 | 90 | 90 | 90 |  | herbicidal effect ABUTH [19]: 100%; herbicidal effect KCHSC (Kochia scoparia (KCHSC) [1]): 90%
3 | Cc1nn(C)c(=O)c(Oc2ccccc2C#N)c1O [Example I-028] |  | 100 | 100 |  |  |  |  |  | 90 | 100 | 100 |  |  |  |  | herbicidal effect POAAN (Poa annua (POAAN)): 100%
4 | CCOC(=O)Oc1c(C)nn(C)c(=O)c1Oc1ccc(F)cc1C1CC1 [Example I-034] | 100 | 100 |  | 90 | 90 | 90 | 90 | 90 | 100 |  |  | 90 | 90 | 90 | 90 | herbicidal effect ECHCG [22]: 90%; herbicidal effect LOLRI (Lolium rigidum (LOLRI) [23]): 90%; herbicidal effect MATIN [8]: 90%; herbicidal effect SETVI (Setaria viridis (SETVI) [24]): 90%
5 | Cc1nn(C)c(=O)c(Oc2ccc(F)c(Cl)n2)c1O [Example I-052] |  |  |  |  |  |  |  |  |  |  |  |  |  |  | 90 | 
6 | Cc1nn(C)c(=O)c(Oc2ccc(Br)cc2)c1O [Example I-068] |  |  |  | 90 |  | 90 |  | 90 |  |  |  |  |  |  | 90 | herbicidal effect SETVI (Setaria viridis (SETVI) [25]): 90%
7 | Cc1nn(C)c(=O)c(Oc2cc(Cl)ccc2Br)c1O [Example I-091] | 100 | 100 | 100 | 100 |  |  | 90 |  |  | 90 | 100 |  |  | 90 |  | herbicidal effect ABUTH [19]: 90%; herbicidal effect LOLRI (Lolium rigidum (LOLRI) [23]): 90%; herbicidal effect LOLRI (Lolium rigidum (LOLRI) [12]): 100%; herbicidal effect AMARE [26]: 90%

— US20240239755A1, “SUBSTITUTED PYRIDAZINONES, SALTS OR N-OXIDES THEREOF AND THEIR USE AS HERBICIDALLY ACTIVE SUBSTANCES” (Bayer Aktiengesellschaft, priority 2021, published 2024)
